Results from ChEMBL document CHEMBL5634092, “Design, synthesis, and biological evaluation of novel HDAC/CD13 dual inhibitors for the treatment of cancer” (Eur J Med Chem, 2023).

Experiments:
[1] = molecular target: T1, Aminopeptidase N (Sus scrofa, UniProt P15145); experiment: Inhibition of porcine kidney CD13 using L-leucine-p-nitroanilide as substrate incubated for 30 mins by microplate reader analysis
T1 sequence (P15145 whole entry): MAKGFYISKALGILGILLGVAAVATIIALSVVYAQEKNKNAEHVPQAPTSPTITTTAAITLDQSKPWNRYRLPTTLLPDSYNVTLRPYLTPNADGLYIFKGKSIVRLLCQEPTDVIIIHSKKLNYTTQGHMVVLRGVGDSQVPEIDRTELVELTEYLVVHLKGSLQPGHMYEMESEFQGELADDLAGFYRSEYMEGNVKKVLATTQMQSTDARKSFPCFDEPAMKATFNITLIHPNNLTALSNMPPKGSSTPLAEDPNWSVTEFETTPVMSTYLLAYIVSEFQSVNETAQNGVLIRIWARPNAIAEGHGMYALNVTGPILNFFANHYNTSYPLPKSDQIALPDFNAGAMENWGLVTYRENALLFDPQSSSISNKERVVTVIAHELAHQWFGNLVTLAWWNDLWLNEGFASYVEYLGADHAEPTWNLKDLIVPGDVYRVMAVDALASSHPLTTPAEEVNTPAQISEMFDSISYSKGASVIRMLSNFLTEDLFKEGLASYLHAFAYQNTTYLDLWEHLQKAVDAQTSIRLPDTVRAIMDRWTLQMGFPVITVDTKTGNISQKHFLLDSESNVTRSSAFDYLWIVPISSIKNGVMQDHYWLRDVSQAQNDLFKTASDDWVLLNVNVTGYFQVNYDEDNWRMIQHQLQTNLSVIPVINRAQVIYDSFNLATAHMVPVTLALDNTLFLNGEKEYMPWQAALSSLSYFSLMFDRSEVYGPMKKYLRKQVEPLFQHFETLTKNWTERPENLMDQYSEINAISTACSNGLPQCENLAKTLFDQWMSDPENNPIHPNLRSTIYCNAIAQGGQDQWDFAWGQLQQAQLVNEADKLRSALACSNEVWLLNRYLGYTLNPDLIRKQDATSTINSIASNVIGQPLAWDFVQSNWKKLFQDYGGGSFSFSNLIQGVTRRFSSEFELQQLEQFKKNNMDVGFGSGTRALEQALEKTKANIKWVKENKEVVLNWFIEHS

[2] = molecular target: Aminopeptidase N (Homo sapiens, UniProt P15144); experiment: Inhibition of human CD13 using L-leucine-p-nitroanilide as substrate incubated for 30 mins by microplate reader analysis
[3] = molecular target: Histone deacetylase 4 (Homo sapiens, UniProt P56524); experiment: Inhibition of human HDAC4 using Boc-Lys (tri-fluoroacetyl)-AMC as substrate incubated for 1 hr followed by substrate addition and further incubated for 2 hrs by fluorescence assay
[4] = molecular target: T2, Polyamine deacetylase HDAC10 (Homo sapiens, UniProt Q969S8); experiment: Inhibition of human HDAC10 using Boc-Lys (tri-fluoroacetyl)-AMC as substrate incubated for 1 hr followed by substrate addition and further incubated for 2 hrs by fluorescence assay
T2 sequence (Q969S8 whole entry): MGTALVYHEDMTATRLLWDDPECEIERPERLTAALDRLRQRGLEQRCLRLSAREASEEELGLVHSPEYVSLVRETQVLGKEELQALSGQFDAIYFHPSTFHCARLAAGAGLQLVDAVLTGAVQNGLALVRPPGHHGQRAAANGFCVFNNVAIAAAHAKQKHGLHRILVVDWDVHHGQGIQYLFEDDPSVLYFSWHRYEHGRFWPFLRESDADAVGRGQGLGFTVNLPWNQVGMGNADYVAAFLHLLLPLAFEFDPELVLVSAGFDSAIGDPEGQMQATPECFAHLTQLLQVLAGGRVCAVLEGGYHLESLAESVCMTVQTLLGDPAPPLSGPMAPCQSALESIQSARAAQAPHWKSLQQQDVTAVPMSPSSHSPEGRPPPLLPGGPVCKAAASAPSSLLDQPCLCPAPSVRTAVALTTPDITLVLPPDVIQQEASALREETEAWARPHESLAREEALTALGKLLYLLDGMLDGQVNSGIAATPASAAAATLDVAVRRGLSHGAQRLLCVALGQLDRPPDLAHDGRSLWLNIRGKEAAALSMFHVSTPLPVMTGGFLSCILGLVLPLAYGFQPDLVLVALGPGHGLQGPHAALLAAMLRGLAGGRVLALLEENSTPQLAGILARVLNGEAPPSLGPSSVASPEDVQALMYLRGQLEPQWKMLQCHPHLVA

[5] = molecular target: T3, Histone deacetylase 11 (Homo sapiens, UniProt Q96DB2); experiment: Inhibition of human HDAC11 using Boc-Lys (tri-fluoroacetyl)-AMC as substrate incubated for 1 hr followed by substrate addition and further incubated for 2 hrs by fluorescence assay
T3 sequence (Q96DB2 whole entry): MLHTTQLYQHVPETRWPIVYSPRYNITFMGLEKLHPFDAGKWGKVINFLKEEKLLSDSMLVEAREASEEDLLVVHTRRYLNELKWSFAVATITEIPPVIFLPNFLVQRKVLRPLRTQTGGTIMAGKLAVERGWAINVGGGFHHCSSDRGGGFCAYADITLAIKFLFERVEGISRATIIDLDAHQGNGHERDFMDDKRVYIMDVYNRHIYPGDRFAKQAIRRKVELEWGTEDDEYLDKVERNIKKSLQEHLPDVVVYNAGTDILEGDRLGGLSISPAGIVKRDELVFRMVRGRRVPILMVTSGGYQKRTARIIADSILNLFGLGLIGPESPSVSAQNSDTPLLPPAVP

[6] = Stability of compound in rat liver homogenate at 0.4 mg/mL measured after 24 hrs by HPLC analysis; assay type: ADME, tissue-based; conditions: tissue homogenate
[7] = Stability of compound in artificial gastric juice at 0.4 mg/mL measured after 24 hrs by HPLC analysis; assay type: ADME; conditions: simulated gi fluid

Sequence of Histone deacetylase 4 (P56524 whole entry): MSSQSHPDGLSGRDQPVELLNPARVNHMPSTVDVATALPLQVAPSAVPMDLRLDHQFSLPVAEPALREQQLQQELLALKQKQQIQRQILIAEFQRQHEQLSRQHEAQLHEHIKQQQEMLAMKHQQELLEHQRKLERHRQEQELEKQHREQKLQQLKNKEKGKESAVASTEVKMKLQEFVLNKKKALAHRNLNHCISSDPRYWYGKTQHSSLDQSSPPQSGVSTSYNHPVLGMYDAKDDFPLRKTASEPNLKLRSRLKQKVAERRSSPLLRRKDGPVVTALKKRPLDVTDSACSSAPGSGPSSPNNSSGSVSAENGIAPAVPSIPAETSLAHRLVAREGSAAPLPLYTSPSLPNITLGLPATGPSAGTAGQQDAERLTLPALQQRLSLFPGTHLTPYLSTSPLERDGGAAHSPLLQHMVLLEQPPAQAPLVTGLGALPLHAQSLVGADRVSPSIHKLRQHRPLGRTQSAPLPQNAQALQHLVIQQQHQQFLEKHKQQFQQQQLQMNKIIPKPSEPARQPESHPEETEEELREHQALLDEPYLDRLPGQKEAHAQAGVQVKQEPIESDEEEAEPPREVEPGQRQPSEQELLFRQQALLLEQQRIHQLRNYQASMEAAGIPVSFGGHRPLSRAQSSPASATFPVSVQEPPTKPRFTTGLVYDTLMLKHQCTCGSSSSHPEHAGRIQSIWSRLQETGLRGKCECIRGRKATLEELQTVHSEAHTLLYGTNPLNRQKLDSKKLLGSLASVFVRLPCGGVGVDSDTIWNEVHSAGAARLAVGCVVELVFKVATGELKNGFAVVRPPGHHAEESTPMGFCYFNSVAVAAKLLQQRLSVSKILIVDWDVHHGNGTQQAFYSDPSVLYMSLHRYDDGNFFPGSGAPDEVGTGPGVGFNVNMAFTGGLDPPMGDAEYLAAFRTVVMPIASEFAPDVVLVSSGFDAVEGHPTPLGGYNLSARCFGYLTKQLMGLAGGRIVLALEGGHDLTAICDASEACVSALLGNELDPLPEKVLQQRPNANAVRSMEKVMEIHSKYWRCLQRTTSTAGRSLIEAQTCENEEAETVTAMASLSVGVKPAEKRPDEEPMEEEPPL
Sequence of Aminopeptidase N (Homo sapiens, UniProt P15144) (P15144 whole entry): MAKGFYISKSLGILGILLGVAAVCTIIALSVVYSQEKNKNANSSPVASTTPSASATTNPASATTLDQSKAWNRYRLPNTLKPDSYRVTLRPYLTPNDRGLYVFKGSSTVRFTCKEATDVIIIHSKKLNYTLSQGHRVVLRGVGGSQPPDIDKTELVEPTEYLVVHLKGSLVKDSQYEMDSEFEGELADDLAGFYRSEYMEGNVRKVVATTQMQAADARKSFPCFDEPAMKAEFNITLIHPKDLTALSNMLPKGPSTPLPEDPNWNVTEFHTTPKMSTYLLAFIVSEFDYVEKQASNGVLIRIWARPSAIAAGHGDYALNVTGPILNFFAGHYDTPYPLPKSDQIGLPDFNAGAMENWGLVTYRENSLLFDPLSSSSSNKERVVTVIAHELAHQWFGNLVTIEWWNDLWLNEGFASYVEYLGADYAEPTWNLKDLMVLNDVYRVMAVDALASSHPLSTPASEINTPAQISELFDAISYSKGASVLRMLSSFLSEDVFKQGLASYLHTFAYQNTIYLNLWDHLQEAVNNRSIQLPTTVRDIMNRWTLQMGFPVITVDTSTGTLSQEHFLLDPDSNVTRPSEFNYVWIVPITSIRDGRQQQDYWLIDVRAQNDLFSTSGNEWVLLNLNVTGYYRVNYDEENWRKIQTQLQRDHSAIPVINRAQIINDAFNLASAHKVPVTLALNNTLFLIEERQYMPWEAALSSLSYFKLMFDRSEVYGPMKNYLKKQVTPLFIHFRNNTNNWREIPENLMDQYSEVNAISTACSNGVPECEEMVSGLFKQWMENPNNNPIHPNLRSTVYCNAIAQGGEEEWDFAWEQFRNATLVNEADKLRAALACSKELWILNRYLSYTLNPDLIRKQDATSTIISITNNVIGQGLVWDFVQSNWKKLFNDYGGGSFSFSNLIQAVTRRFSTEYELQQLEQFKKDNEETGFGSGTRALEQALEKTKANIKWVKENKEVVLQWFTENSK

CCCNNC(=O)c1ccc(CNC(=O)[C@H](CC(C)C)NC(=O)[C@@H](O)[C@H](N)Cc2ccccc2)cc1.Cl
IC50 [1]: 530 nM
IC50 [2]: 340 nM
IC50 [3]: > 10000 nM
IC50 [4]: > 10000 nM
IC50 [5]: 1240 nM
Stability [6]: Stable
Stability [7]: Stable
